Consider six compounds from patent EP0437336B1, “Biophosphoryl hydrazines and their use as pesticides” (priority 1990, dated 1991).

Values after ≈ are worked out from the molar mass of the structure shown. Like-named read-outs stand apart in the source and are kept apart here.

In one data set the test system is Southern Armyworm. Kind of data set: Biological Method D: Foliar Insecticidal Activity Test, Southern Armyworm test. The class given is in vivo, Spodoptera eridania. The arrangement: key: I = inactive at concentration listed. The protocol:
(§1) Biological Method D: Foliar Insecticidal Activity Test
(§2) In evaluating the foliar insecticidal activity of the compounds of this invention against insects and mites, the following test procedures were employed.
(§3) Not all compounds were tested at each of the several concentrations stated above. Test concentrations of a compound were selected as those most likely to differentiate dose response of a particular compound toward a particular test insect.
(§4) Initial evaluations were made on one or more of the following pests:
(§5) For the Mexican Bean Beetle and Southern armyworm tests, individual lima bean (Phaseolus limeniss var. Woods' Prolific) leaves were placed on moistened pieces of filter paper in Petri dishes. The leaves were then sprayed with the test solution using a rotating turntable and allowed to dry. The dishes were then infested with 10 third instar larvae of either the Mexican Been Beetle or the Southern Armyworm. The dishes were then covered. Percent mortality was determined for each species and spray concentration at 48 and 96 hours after treatment.
(§6) The mortalities obtained in this manner were plotted on logarithmic probability paper.
(§7) The rotating turntable consists of a fixed, continuously operating spray nozzle under which targets are rotated at a fixed speed and distance. If the target is a Petri dish (such as for the bean beetle, armyworm, mite, or aphid tests), the distance from the nozzle is 38.1 cm (15 inches). If the target is a Mason jar (such as for the boll weevil test), the distance from the nozzle is 17.8 cm (7 inches). The nozzle is located 8 inches from the rotating shaft. The targets on individual platforms revolve around the shaft at 1 revolution per 20 seconds but only a brief portion of this time occurs in the spray path. Targets pass only once under the nozzle and then are removed to drying hoods.
(§8) The nozzle used is a 1/4 JCO Spraying Systems (Wheaton, Illinois) air atomizing nozzle equipped with a No. 2850 fluid cap and a No. 70 air cap. At the 68.95 x 10³ Pa gauge (10 psig) air pressure used and with liquid siphon feed, 1.89 ℓ/hr [0.5 GPH (gallons per hour)] are delivered in a round spray pattern with a 21 degree spray angle. Targets are misted with spray droplets to the point that the droplets coalesce to form a uniform thin film insufficient to drown test organisms.

Data set [1] relates to southern corn rootworm, Diabrotica undecimpunctata howardi. The conditions noted are these: at-planting soil application.
In a further data set the test system is Green Peach Aphid. Kind of data set: Biological Method D: Foliar Insecticidal Activity Test, aphid test. The class given is in vivo, Myzus persicae. The arrangement: key: I = inactive at concentration listed. As for the experimental part: as §1, §2, §3, §4
For the aphid test, infested broccoli (Brassica oleracea italica var. DiCicco) leaves containing about 50 aphids were placed in a Petri dish lid on a moistened piece of cotton. The leaves were then sprayed to thorough wetness with the test solution using a rotating turntable, held for twenty-four hours and then the percentage killed was determined.
as §6, §7, §8

In data set [2] the test system is southern corn rootworm, Diabrotica undecimpunctata howardi. The data set can be described thus: Biological Method A: Corn Rootworm Screening Test (treated non-aggressive soil). Particulars: soil concentration giving 90% mortality, 10 days at 27°C.
For the next data set, the system named is Two-Spotted Spider Mite. Kind of data set: Biological Method D: Foliar Insecticidal Activity Test, mite test. The data set is classed as in vivo, Tetranychus urticae. The arrangement: key to LC50 TSM: I = inactive at concentration listed. The conditions noted are these: Method D foliar test; Two-Spotted Spider Mite. The protocol: as §1, §2, §3, §4
For the mite test, infested bean (Phaseolus limensis var. Woods Prolific) leaf discs [3.18 cm (1.25") in diameter] containing about 50 mites were placed in a Petri dish lid on a moistened piece of cotton. The leaves were then sprayed to thorough wetness with the test solution using a rotating turntable, held for twenty-four hours and then the percentage killed was determined.
as §6, §7, §8

Data set [3] has as its system Boll Weevil. The data set can be described thus: Biological Method D: Foliar Insecticidal Activity Test, boll weevil test. The class given is in vivo, Anthonomous grandis. The arrangement: key: I = inactive at concentration listed. As for the experimental part: as §1, §2, §3, §4
(§9) For the boll weevil test, 10 adult weevils were placed in a 0.24 ℓ (0.5 pint) glass Mason jar containing a small cube of apple. The weevils were confined to the jar by fiberglass screen mesh secured by a screw-type rim cap. The jars were then sprayed with the test solution using a rotating turntable; directing the spray through the mesh into the jar. The percentage killed was determined after forty-eight and ninety six hours.
as §6, §7, §8

The test system of a further data set is Mexican Bean Beetle. Kind of data set: Biological Method D: Foliar Insecticidal Activity Test, Mexican Bean Beetle test. The class given is in vivo, Epilachna varivestis. The arrangement: key to LC50 BB 96 hrs / LC50 BB 48 hrs.: I = inactive at concentration listed. The conditions noted are these: Method D foliar test, Mexican Bean Beetle; for LC50: Epilachna varivestis. The protocol: as §1, §2, §3, §4, §5, §6, §7, §8

Data set [4] has as its system Boll Weevil. Kind of data set: Biological Method D: Foliar Insecticidal Activity Test, boll weevil test. The data set is classed as in vivo, Anthonomous grandis. Particulars: Method D foliar test, Boll Weevil. As for the experimental part: as §1, §2, §3, §4, §9, §6, §7, §8
[5] abbreviates: 96 hrs, read-out: LC50 BB 96 hrs.
[6] abbreviates: 48 hrs, read-out: LC50 BB 48 hrs.

As for `CCOP(=S)(NNP(=S)(OCC)OC(C)CC)OCC(C)(C)C` (centres unmarked) [Compound 47, N-(O-ethyl O-secbutylthiophosphoryl) N′-(O-ethyl O-neopentylthiophosphoryl) hydrazine], in the data set on Southern Armyworm, the “LC50 AW 48 hrs” value is “I” and the “LC50 AW 96 hrs” value was “I”. For the same compound, the “secondary aggressive Method C crw LC50” value in data set [1] (rated 17 days post-infestation) was found to be 0.38 kg/ha. Further, in data set [1] (value in brackets), the “secondary aggressive Method C crw LC50” value amounted to 0.34 lb/acre. Further, the “LC50 GPA” value in the data set with Green Peach Aphid is given as “I”. The “primary nonagressive Method A crw LC90” value in data set [2] is recorded as 0.09 ppm. In addition, the “LC50 TSM” value with Two-Spotted Spider Mite is on record as “I”. In the data set with Boll Weevil [3], the “LC50 BW 48 hrs” value is “I” and the “LC50 BW 96 hrs” value is given as “I”. Further, the LC50 (commonly the concentration lethal to half of the exposed cells or organisms) in the data set on Mexican Bean Beetle (setting [5]) was 45 µg/mL (≈ 111 µM). The “LC50 BB 48 hrs.” value in the data set with Mexican Bean Beetle (48 hrs) is “I”.

For `CCCOP(=S)(NNP(=S)(OCCC)OCCC)OCC` (centres unmarked) [Compound 28], in the data set with Southern Armyworm, the “LC50 AW 48 hrs” value was “I” and the “LC50 AW 96 hrs” value was “I”. In data set [1] (rated 17 days post-infestation), the “secondary aggressive Method C crw LC50” value is 1.06 kg/ha. Besides, in data set [1] (value in brackets), the “secondary aggressive Method C crw LC50” value is reported as 0.95 lb/acre. Moreover, the “LC50 GPA” value in the data set with Green Peach Aphid is listed as “I”. In addition, the “primary nonagressive Method A crw LC90” value in data set [2] came out at 1.1 ppm. Besides, the “LC50 TSM” value with Two-Spotted Spider Mite is reported as “I”. In addition, in the data set on Boll Weevil [3], the “LC50 BW 48 hrs” value was “I” and the “LC50 BW 96 hrs” value was “I”. Besides, the LC50 in the data set with Mexican Bean Beetle (setting [6]) was 62 µg/mL (≈ 164 µM). In the data set with Mexican Bean Beetle (setting [5]), the LC50 was determined as 50 µg/mL (≈ 132 µM).

In the case of `CCCOP(=S)(NNP(=S)(OCC)SCC)OCCC` (centres unmarked) [Compound 27], in the data set with Southern Armyworm, the “LC50 AW 48 hrs” value was “I” and the “LC50 AW 96 hrs” value is reported as “I”. In addition, the “LC50 BW 96 hrs” value in the data set on Boll Weevil [4] turned out to be 740 ppm. Further, in the data set on Green Peach Aphid, the “LC50 GPA” value is “I”. In addition, the “primary nonagressive Method A crw LC90” value in data set [2] is recorded as 5.8 ppm. Besides, in the data set with Two-Spotted Spider Mite, the “LC50 TSM” value is on record as “I”. Besides, the “LC50 BW 48 hrs” value in the data set on Boll Weevil [3] is “I”. The LC50 with Mexican Bean Beetle (setting [6]) stood at 150 µg/mL (≈ 394 µM). For the same compound, the LC50 with Mexican Bean Beetle (setting [5]) came to 150 µg/mL (≈ 394 µM).

Regarding `CCOP(=S)(NNP(=S)(OCC(C)(C)C)OCC(C)(C)C)OCC(C)(C)C` (centres unmarked) [Compound 57, N-(O,O-dineopentylthiophosphoryl) N′-(O-ethyl O-neopentylthiophosphoryl) hydrazine], in the data set on Southern Armyworm, the “LC50 AW 48 hrs” value was “I” and the “LC50 AW 96 hrs” value was “I”. In data set [1] (rated 17 days post-infestation), the “secondary aggressive Method C crw LC50” value was 0.5 kg/ha. The “secondary aggressive Method C crw LC50” value in data set [1] (value in brackets) stood at 0.45 lb/acre. In addition, the “LC50 GPA” value in the data set with Green Peach Aphid is on record as “I”. In addition, the “primary nonagressive Method A crw LC90” value in data set [2] was determined as 1.1 ppm. Moreover, the “LC50 TSM” value in the data set with Two-Spotted Spider Mite is “I”. In the data set with Boll Weevil [3], the “LC50 BW 48 hrs” value is “I” and the “LC50 BW 96 hrs” value was “I”. Moreover, in the data set on Mexican Bean Beetle (48 hrs), the “LC50 BB 48 hrs.” value is on record as “I”. Besides, the “LC50 BB 96 hrs” value with Mexican Bean Beetle (96 hrs) was “I”.

For `CCCOP(=S)(NNP(=S)(OCC)OCC)OCC(C)(C)C` (centres unmarked) [Compound 34], in the data set on Southern Armyworm, the “LC50 AW 48 hrs” value is reported as “I” and the “LC50 AW 96 hrs” value was “I”. In addition, in data set [1] (rated 17 days post-infestation), the “secondary aggressive Method C crw LC50” value turned out to be 0.65 kg/ha. Moreover, the “secondary aggressive Method C crw LC50” value in data set [1] (value in brackets) was 0.58 lb/acre. Besides, in the data set with Green Peach Aphid, the “LC50 GPA” value is “I”. Further, the “primary nonagressive Method A crw LC90” value in data set [2] was found to be 1.1 ppm. In addition, the “LC50 TSM” value in the data set on Two-Spotted Spider Mite is given as “I”. For the same compound, in the data set on Boll Weevil [3], the “LC50 BW 48 hrs” value is listed as “I” and the “LC50 BW 96 hrs” value is listed as “I”. In addition, the median lethal concentration (LC50) in the data set on Mexican Bean Beetle (setting [5]) was determined as 52 µg/mL (≈ 132 µM). For the same compound, in the data set on Mexican Bean Beetle (48 hrs), the “LC50 BB 48 hrs.” value is reported as “I”.

As to `CCOP(=O)(NNP(=S)(OCC)OC(C)C)SC(C)CC` (centres unmarked) [Compound 55], in the data set with Southern Armyworm, the “LC50 AW 48 hrs” value is given as “I” and the “LC50 AW 96 hrs” value is listed as “I”. Moreover, the “LC50 BW 48 hrs” value with Boll Weevil [4] (48 hrs) came to 740 ppm. Further, the “LC50 BW 96 hrs” value in the data set on Boll Weevil [4] is recorded as 70 ppm. Also, the “LC50 GPA” value in the data set on Green Peach Aphid is given as “I”. For the same compound, in data set [2], the “primary nonagressive Method A crw LC90” value stood at 1.1 ppm. Besides, in the data set with Two-Spotted Spider Mite, the “LC50 TSM” value is given as “I”. Further, the LC50 with Mexican Bean Beetle (setting [5]) came to 17 µg/mL (≈ 44.9 µM). Also, the “LC50 BB 48 hrs.” value with Mexican Bean Beetle (48 hrs) is “I”.
